Data reported in ChEMBL document CHEMBL1128759, “Inhibition of interleukin-1 converting enzyme by N-acyl-aspartyl aryloxymethyl ketones” (Bioorg Med Chem Lett, 1995).

How the values were obtained:
Assay type in all cases: cell-based
Caspase-1 = molecular target: T1, Caspase-1 (Homo sapiens, UniProt P29466); experiment: Inhibition of IL-1 beta converting enzyme (ICE) in human blood monocytes expressed as Ki
T1 sequence (P29466 whole entry): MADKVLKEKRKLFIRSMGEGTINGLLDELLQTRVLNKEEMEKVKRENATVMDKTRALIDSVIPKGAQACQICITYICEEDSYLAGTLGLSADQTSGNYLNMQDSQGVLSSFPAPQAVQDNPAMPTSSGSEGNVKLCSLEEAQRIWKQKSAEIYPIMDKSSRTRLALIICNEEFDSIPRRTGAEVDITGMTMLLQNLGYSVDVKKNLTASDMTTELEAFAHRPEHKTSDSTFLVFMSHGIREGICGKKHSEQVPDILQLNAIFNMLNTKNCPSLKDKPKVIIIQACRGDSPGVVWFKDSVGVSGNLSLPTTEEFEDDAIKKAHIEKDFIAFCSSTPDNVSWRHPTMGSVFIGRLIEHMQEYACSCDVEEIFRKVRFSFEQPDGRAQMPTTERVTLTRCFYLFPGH

Caspase-1 (Homo sapiens) [1] = molecular target: T2, Caspase-1 (Homo sapiens) (UniProt P29466); experiment: Inhibition of IL-1 beta converting enzyme (ICE) in human blood monocytes expressed as Kon
T2 sequence (whole entry): T1 sequence (P29466 whole entry)

Caspase-1 (Homo sapiens) [2] = molecular target: T2, Caspase-1 (Homo sapiens); experiment: Compound was tested for inhibition of IL-1 beta converting enzyme (ICE) in human blood monocytes expressed as Ki

Structure (SMILES)	Ki (Caspase-1)	k on (Caspase-1 (Homo sapiens) [1])	k on (Caspase-1 (Homo sapiens) [2])
C=CCOC(=O)NC(CC(=O)O)C(=O)COc1cc2ccccc2cc1C(=O)Nc1ccccc1 (centres undefined)		4100 M⁻¹ s⁻¹	
C=CCOC(=O)NC(CC(=O)O)C(=O)COc1cc2ccccc2cc1C(=O)N(C)C (centres undefined)	> 28 µM		
CC(C)[C@H](NC(=O)OCc1ccccc1)C(=O)N[C@@H](C)C(=O)N[C@@H](CC(=O)O)C(=O)COc1ccccc1	4.9 µM	1.1 M⁻¹ s⁻¹	
C=CCOC(=O)NC(CC(=O)O)C(=O)COc1c(C(N)=O)ccc2ccccc12 (centres undefined)	> 22 µM		
C=CCOC(=O)N[C@@H](CC(=O)O)C(=O)CCc1cc2ccccc2cc1-c1ncc[nH]1	> 100 µM		
C=CCOC(=O)NC(CC(=O)O)C(=O)COc1cc2ccccc2cc1C#N (centres undefined)		4500 M⁻¹ s⁻¹	
C=CCOC(=O)NC(CC(=O)O)C(=O)COc1ccc2ccccc2c1C(N)=O (centres undefined)	> 18 µM		
C=CCOC(=O)NC(CC(=O)O)C(=O)COc1ccc(-c2ccccc2)cc1C(N)=O (centres undefined)			3400 M⁻¹ s⁻¹

Further molecules by falling Ki (Caspase-1), results first:

Ki (Caspase-1)	k on (Caspase-1 (Homo sapiens) [1])	k on (Caspase-1 (Homo sapiens) [2])	Structure (SMILES)
4 µM			C=CCOC(=O)NC(CC(=O)O)C(=O)COc1ccc2ccccc2c1 (centres undefined)
3.8 µM			C=CCOC(=O)NC(CC(=O)O)C(=O)COc1ccccc1C(N)=O (centres undefined)
2.7 µM			C=CCOC(=O)NC(CC(=O)O)C(=O)COc1ccccc1 (centres undefined)
2 µM			C=CCOC(=O)NC(CC(=O)O)C(=O)COc1cc(-c2ccccc2)ccc1C(N)=O (centres undefined)
1.7 µM	430000 M⁻¹ s⁻¹		CC(C)[C@H](NC(=O)OCc1ccccc1)C(=O)N[C@@H](C)C(=O)N[C@@H](CC(=O)O)C(=O)COc1cc2ccccc2cc1C(N)=O
0.32 µM	5600 M⁻¹ s⁻¹		C=CCOC(=O)NC(CC(=O)O)C(=O)COc1cc2ccccc2cc1C(N)=O (centres undefined)
0.09 µM	12000 M⁻¹ s⁻¹		C=CCOC(=O)N[C@@H](CC(=O)O)C(=O)COc1cc2ccccc2cc1-c1ncc[nH]1
